From patent US9788552B2, “Use of a natural grape marc extract in order to stimulate the natural defenses of plants” (CENTRE NATIONAL DE LA RECHERCHE SCIENTIFIQUE—CNRS, priority 2010, dated 2017)

Test system: tobacco leaf
Assay: Tobacco leaf infiltration tests, macroscopic symptoms under white light
Type: in vivo
Conditions: 50 μl, 8 days after infiltration
Description: Various tobacco leaf infiltration tests were carried out with 50 μl of solution as follows: Eight days after infiltration, macroscopic symptoms were observed under white light and under UV light (wavelength=312 nm). In the figures, the numbers correspond to the spot of infiltration of the test of the same number.

Row | SMILES | chlorosis or necrosis at the infiltrated sites (10 mM, white light (Test 6)) | necrosis in infiltrated foliar tissues (2 mM, white light (Test 7, positive control))
1 | CC(N)CC(=O)O (stereo not drawn) [BABA, β-aminobutyric acid] | do not induce chlorosis or necrosis | 
2 | O=C(O)c1ccccc1O [Salicylic acid, salicylic acid] |  | causes necrosis
